# Laboratory results reported in BindingDB's records for PubMed 8863838 (Upr Centre, 1996).
# Assays:
# [1] = target: Metabotropic glutamate receptor 2 (Homo sapiens, UniProt Q14416)
# [2] = target: Metabotropic glutamate receptor 4 (Rattus norvegicus, UniProt P31423)
# Metabotropic glutamate receptor 4, sequence (P31423 whole entry): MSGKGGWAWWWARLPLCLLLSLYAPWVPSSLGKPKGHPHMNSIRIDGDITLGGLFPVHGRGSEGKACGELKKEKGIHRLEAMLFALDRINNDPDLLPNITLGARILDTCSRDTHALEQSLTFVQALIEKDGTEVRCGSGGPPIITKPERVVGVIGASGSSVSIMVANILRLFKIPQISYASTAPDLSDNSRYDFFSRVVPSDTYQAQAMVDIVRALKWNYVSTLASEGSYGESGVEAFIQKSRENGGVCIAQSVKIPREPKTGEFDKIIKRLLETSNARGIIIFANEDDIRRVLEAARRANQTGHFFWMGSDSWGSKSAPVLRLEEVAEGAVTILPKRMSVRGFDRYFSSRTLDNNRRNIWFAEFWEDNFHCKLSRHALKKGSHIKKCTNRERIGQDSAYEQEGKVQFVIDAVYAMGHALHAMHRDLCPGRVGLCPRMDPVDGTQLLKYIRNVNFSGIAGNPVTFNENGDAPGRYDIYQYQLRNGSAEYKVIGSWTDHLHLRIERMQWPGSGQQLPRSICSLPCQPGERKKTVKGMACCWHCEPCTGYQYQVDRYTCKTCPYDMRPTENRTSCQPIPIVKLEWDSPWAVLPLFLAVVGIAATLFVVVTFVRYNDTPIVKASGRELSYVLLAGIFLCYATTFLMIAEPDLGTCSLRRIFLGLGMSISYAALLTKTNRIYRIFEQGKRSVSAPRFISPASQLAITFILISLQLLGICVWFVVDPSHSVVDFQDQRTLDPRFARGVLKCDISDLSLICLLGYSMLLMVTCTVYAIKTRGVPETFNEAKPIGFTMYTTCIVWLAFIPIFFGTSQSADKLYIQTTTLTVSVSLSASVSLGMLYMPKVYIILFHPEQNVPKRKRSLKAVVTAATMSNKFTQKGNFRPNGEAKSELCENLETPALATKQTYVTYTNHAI
# Metabotropic glutamate receptor 2, sequence (Q14416 whole entry): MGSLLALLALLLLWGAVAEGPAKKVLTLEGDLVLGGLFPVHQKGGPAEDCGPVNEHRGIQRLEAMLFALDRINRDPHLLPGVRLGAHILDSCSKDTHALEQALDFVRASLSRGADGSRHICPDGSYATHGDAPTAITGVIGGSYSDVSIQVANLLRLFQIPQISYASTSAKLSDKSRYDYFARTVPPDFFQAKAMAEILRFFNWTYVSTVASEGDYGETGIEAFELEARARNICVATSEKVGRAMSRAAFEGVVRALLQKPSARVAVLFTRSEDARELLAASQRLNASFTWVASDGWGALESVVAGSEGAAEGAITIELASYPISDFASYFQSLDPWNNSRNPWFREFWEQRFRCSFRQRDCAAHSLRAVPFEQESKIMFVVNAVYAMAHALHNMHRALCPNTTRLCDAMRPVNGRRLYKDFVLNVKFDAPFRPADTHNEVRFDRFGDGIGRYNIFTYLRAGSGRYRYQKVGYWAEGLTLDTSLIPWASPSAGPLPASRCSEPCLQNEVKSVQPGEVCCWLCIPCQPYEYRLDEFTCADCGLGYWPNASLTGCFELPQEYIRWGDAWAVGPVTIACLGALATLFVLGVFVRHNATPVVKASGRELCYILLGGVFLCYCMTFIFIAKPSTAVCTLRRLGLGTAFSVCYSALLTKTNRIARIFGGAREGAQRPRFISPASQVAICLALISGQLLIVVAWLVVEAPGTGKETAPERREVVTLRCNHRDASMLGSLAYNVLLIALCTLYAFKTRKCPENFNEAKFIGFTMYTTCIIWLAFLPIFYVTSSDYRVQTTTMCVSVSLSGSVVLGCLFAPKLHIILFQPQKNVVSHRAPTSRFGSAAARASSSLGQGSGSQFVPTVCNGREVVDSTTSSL
Structure (SMILES),Ki [1],Ki [2]
NC(C(=O)O)c1ccc(C(=O)O)cc1 (stereo not drawn) [4-(Amino-carboxy-methyl)-benzoic acid],> 10 µM,
"N[C@H](C(=O)O)[C@H]1C[C@@H]1C(=O)O [(1S,2S)-2-((S)-Amino-carboxy-methyl)-cyclopropanecarboxylic acid]",0.49 µM,8.9 µM
CC(N)(CCP(=O)(O)O)C(=O)O (stereo not drawn) [NSC_1795545],> 10 µM,> 10 µM
NC(C(=O)O)c1ccc(C(=O)O)c(O)c1 (stereo not drawn),> 10 µM,
"N[C@@]1(C(=O)O)CC[C@H](CC(=O)O)C1 [(1S,3S)-HOMO-ACPD]",> 10 µM,> 10 µM
"N[C@@]1(C(=O)O)CC[C@H](C(=O)O)C1 [1S, 3R-ACPD]",> 10 µM,> 10 µM
NC(C(=O)O)c1cc(=O)[nH]o1 (stereo not drawn) [Amino-(3-hydroxy-isoxazol-5-yl)-acetic acid(Ibotenic acid)],,> 10 µM
CC(N)(C(=O)O)c1ccc(S(=O)(=O)O)cc1 (stereo not drawn) [NSC_3964410],> 10 µM,> 10 µM
N[C@@H](COP(=O)(O)O)C(=O)O,,2.3 µM
N[C@@H](CCP(=O)(O)O)C(=O)O,,0.4 µM
CC(N)(C(=O)O)c1ccc(-n2cnnn2)cc1 (stereo not drawn) [NSC_5311456],> 10 µM,
"N[C@@H](Cn1oc(=O)[nH]c1=O)C(=O)O [2-amino-3-(3,5-dioxo[1,2,4]oxadiazolidin-2-yl)propionic acid]",> 10 µM,> 10 µM
C[C@](N)(C(=O)O)C1C[C@@H]1C(=O)O (stereo partly drawn) [MCCG-I],> 10 µM,
C[C@@](N)(C(=O)O)c1ccc(C(=O)O)cc1 (racemic),> 10 µM,
N[C@@H](CCC(=O)O)C(=O)O [L-Glutamic acid],,> 10 µM
CC(N)(C(=O)O)c1ccc(P(=O)(O)O)cc1 (stereo not drawn),> 10 µM,> 10 µM
